Patent US20150250714A1, “PHARMACEUTICAL COMPOSITIONS AND DELIVERY DEVICES COMPRISING STINGING CELLS OR CAPSULES” (NANOCYTE (ISRAEL) LTD., priority 2010, published 2015)
Where two headings read alike, the source gives them in different places.

Experiments:
[1] = topical 400 mg
Description: Cnidocysts were isolated from the filament acontia of Aiptasia diaphana based on their high density and high stability in salts as described previously (1, 2) (FIGS. 1A-C). Briefly, filaments were incubated in 1M sodium citrate, followed by two centrifugations in 70% percoll gradients. The isolated cnidocysts were washed with decreasing concentrations of NaCl (1M to 0.2M) and freeze-dried. The purified cnidocysts were kept dry until use, or formulated in an anhydrous gel consisting of 2% hydroxyl propyl cellulose in absolute ethanol.
The study included 3 dosing sessions as detailed in Table 3 below.

[2] = oral; cited from earlier work

| SMILES | Cumulative Value (CV) % of atropine concentrations, Topical ([1]; Time 0.17) [%] | Cumulative Value (CV) % of atropine concentrations, Topical ([1]; Time 0.25) [%] | Cumulative Value (CV) % of atropine concentrations, Topical ([1]; Time 0.5) [%] | Cumulative Value (CV) % of atropine concentrations, Topical ([1]; Time 0.75) [%] | Cumulative Value (CV) % of atropine concentrations, Topical ([1]; Time 1) [%] | Cumulative Value (CV) % of atropine concentrations, Topical ([1]; Time 2) [%] | Cumulative Value (CV) % of atropine concentrations, Topical ([1]; Time 4) [%] | Cumulative Value (CV) % of atropine concentrations, Topical ([1]; Time 12) [%] | Cumulative Value (CV) % of atropine concentrations, Topical ([1]; Time 24) [%] | fraction absorbed when taken orally [2] [%] |
| --- | --- | --- | --- | --- | --- | --- | --- | --- | --- | --- |
| CN1[C@@H]2CC[C@H]1C[C@@H](OC(=O)C(CO)c1ccccc1)C2 (mixture of isomers) [atropine, Atropine] | 43.6 | 76.9 | 42.5 | 148.9 | 103.7 | 98.9 | 113.2 | 96.4 | 144.3 |  |
| NCCCC(O)(P(=O)(O)O)P(=O)(O)O [sodium alendronate] |  |  |  |  |  |  |  |  |  | 0.64 |
